Data taken from ChEMBL document CHEMBL6153119, “Target Identification with Live-Cell Photoaffinity Labeling and Mechanism of Action Elucidation of ARN23765, a Highly Potent CFTR Corrector” (J Med Chem, 2025).
Values belong to the compound of their own block, whether it stands above or below them. Activity calls are given as the source filed them. The rule behind the calls is not given here.

Experiments:
Format in all cases: cell-based
[1] = biological target: Cystic fibrosis transmembrane conductance regulator (Homo sapiens) (UniProt P13569); test: Corrector activity at wild-type CFTR (unknown origin) expressed in human CFBE41o- cells assessed as restoration of CFTR level at 2.5 uM with UV light irradiation followed by CuAAC implementation by pull down assay
Sequence of Cystic fibrosis transmembrane conductance regulator (Homo sapiens) (P13569 whole entry, looked up, the tested form may be a part): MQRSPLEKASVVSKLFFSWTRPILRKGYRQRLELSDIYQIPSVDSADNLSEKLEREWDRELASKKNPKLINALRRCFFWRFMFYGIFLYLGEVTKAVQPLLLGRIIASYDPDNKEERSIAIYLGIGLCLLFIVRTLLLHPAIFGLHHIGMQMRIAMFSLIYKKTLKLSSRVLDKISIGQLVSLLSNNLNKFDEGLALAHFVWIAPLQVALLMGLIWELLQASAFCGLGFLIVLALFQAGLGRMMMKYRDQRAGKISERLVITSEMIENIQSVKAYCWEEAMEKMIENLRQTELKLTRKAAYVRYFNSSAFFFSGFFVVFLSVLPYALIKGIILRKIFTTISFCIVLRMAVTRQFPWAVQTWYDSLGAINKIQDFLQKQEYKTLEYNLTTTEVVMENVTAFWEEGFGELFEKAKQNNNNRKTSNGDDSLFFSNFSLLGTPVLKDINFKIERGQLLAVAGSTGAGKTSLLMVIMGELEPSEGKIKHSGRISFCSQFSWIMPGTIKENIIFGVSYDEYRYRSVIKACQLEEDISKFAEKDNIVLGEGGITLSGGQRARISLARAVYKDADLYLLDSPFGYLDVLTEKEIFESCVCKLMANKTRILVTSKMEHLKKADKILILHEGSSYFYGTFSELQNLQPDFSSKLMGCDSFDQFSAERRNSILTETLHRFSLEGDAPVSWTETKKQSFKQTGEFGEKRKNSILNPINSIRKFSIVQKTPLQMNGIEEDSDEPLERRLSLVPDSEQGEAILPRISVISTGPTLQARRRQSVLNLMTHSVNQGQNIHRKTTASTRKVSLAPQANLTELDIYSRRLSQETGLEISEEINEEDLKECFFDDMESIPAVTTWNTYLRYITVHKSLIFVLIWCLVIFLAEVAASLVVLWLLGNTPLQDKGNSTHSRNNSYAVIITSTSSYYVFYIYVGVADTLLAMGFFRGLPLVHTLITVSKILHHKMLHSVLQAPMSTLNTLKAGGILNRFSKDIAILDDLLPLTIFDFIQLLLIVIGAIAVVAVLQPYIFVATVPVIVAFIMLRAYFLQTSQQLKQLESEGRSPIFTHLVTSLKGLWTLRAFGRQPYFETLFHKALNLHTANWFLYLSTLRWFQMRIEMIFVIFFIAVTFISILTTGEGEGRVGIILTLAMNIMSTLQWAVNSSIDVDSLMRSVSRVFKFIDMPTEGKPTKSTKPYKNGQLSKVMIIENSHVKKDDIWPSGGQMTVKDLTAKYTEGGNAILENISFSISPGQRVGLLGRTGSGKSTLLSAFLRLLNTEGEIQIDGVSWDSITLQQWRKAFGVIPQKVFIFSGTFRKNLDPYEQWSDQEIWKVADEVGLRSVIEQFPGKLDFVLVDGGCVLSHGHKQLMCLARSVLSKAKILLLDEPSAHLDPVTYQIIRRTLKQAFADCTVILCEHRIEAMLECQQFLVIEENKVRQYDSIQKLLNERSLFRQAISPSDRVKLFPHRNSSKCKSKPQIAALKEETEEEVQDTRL

[2] = test system: Cystic fibrosis transmembrane conductance regulator (Homo sapiens), P13569 [F508del]; test: Corrector activity at CFTR F508del mutant (unknown origin) expressed in human CFBE41o- cells co-expressing HS-YFP assessed as maximum restoration of channel function incubated for 24 hrs by florescence based analysis (reference value: 3.0)
Sequence of Cystic fibrosis transmembrane conductance regulator (Homo sapiens), P13569 [F508del] (P13569 as listed by the source): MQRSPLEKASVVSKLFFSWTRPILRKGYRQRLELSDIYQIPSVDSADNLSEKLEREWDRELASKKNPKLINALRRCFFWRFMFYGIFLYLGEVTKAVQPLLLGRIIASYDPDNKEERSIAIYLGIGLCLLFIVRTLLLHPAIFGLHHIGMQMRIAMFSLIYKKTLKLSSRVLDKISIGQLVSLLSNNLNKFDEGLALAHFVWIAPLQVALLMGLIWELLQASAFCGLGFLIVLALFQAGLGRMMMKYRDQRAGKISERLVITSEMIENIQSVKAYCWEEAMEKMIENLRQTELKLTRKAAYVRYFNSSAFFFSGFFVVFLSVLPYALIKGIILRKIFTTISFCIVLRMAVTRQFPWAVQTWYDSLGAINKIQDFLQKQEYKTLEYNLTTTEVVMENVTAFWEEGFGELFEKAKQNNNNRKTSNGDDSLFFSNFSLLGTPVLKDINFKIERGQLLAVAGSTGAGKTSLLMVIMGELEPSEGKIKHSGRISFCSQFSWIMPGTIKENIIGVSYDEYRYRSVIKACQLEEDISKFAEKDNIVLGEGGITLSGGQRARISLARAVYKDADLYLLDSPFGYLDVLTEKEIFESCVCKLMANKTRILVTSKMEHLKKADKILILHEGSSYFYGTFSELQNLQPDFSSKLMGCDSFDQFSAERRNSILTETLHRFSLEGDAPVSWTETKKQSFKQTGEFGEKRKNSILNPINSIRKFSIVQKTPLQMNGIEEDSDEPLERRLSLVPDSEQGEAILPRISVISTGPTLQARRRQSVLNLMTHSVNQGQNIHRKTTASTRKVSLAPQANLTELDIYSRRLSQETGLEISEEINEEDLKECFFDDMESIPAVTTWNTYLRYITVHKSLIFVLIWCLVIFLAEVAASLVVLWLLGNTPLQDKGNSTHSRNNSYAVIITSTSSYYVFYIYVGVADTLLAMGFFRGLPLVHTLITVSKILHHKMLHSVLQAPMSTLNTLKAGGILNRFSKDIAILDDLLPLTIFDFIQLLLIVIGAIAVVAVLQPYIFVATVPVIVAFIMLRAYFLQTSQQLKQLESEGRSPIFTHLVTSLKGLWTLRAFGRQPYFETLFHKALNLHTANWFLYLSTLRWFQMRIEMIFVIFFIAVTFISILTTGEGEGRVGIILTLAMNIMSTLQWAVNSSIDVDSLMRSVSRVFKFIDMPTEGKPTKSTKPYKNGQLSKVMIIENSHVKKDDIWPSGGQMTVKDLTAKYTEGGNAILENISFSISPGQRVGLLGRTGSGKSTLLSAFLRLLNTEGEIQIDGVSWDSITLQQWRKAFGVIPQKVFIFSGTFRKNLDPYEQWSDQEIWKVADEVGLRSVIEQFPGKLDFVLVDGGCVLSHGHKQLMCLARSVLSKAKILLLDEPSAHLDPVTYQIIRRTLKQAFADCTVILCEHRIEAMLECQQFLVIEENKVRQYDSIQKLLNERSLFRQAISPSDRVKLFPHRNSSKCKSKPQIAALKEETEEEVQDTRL

[3] = biological target: Cystic fibrosis transmembrane conductance regulator (Homo sapiens) (UniProt P13569); test: Corrector activity at wild-type CFTR (unknown origin) expressed in human CFBE41o- cells assessed as restoration of CFTR level at 1 uM preincubated with ARN23765 followed by compound addition measured after 2 hrs by pull down assay
[4] = test system: Cystic fibrosis transmembrane conductance regulator (Homo sapiens), P13569 [F508del]; test: Corrector activity at CFTR F508del mutant (unknown origin) expressed in human CFBE41o- cells assessed as restoration of CFTR level at 1 uM preincubated with ARN23765 followed by compound addition measured after 2 hrs by pull down assay
[5] = biological target: Cystic fibrosis transmembrane conductance regulator (Homo sapiens) (UniProt P13569); test: Corrector activity at CFTR in human CFBE41o- cells harboring CFTR-/- assessed as restoration of CFTR level at 1 uM preincubated with ARN23765 followed by compound addition measured after 2 hrs by pull down assay
[6] = test system: Cystic fibrosis transmembrane conductance regulator (Homo sapiens), P13569 [F508del]; test: Corrector activity at mature CFTR F508del mutant (unknown origin) expressed in human CFBE41o- cells assessed as restoration of CFTR level at 27 degreeC at 1 uM preincubated with ARN23765 followed by compound addition measured after 2 hrs by pull down assay
[7] = test system: Cystic fibrosis transmembrane conductance regulator (Homo sapiens), P13569 [F508del]; test: Corrector activity at immature CFTR F508del mutant (unknown origin) expressed in human CFBE41o- cells assessed as restoration of CFTR level at 27 degreeC at 1 uM preincubated with ARN23765 followed by compound addition measured after 2 hrs by pull down assay
[8] = test system: Cystic fibrosis transmembrane conductance regulator (Homo sapiens), P13569 [F508del/R1070W]; test: Corrector activity at CFTR F508del/R1070W mutant (unknown origin) transfected in HEK293 cells assessed as increase in protein maturation at 3 uM incubated for 24 hrs by Western blot analysis
Sequence of Cystic fibrosis transmembrane conductance regulator (Homo sapiens), P13569 [F508del/R1070W] (P13569 as listed by the source): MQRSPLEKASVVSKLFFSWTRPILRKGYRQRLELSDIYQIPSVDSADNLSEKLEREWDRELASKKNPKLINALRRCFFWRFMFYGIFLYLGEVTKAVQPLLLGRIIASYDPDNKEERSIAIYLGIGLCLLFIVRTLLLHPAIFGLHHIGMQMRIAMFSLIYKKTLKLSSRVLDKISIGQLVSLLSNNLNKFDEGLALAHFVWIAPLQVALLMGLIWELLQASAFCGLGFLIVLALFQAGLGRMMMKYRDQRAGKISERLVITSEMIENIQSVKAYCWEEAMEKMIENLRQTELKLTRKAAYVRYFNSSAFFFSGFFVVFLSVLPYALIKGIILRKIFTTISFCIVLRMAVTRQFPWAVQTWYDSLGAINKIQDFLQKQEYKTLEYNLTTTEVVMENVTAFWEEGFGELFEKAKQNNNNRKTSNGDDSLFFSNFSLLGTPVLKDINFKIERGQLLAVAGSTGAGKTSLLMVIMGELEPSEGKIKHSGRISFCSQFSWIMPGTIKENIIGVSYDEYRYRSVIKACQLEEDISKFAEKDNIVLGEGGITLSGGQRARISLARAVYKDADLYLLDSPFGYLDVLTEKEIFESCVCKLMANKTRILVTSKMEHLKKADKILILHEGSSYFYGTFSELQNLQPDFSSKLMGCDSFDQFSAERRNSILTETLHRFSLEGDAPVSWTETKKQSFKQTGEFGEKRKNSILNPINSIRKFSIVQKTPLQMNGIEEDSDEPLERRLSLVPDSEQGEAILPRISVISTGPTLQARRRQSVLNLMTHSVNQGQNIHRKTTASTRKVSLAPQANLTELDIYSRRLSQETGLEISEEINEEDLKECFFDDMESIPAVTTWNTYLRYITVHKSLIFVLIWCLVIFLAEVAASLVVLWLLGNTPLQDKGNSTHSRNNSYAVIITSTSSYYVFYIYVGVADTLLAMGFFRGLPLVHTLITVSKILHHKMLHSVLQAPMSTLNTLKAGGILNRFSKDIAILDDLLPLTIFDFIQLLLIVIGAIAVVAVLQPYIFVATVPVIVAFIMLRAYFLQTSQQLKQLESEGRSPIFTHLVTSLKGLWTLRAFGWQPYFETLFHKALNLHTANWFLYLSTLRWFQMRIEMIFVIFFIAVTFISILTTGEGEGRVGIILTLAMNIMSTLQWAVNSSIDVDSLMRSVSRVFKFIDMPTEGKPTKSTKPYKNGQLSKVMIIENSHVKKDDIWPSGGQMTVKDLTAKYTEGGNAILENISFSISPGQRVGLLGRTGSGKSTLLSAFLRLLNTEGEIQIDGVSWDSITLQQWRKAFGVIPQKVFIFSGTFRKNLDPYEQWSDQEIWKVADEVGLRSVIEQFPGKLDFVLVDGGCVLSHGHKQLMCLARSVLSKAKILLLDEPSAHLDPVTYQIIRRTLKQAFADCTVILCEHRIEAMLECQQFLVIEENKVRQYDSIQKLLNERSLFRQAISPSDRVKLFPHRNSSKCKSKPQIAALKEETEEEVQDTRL

[9] = test system: Cystic fibrosis transmembrane conductance regulator (Homo sapiens), P13569 [F508del/R1070W]; test: Corrector activity at CFTR F508del/R1070W mutant (unknown origin) transfected in HEK293 cells assessed as increase in […] at 3 uM incubated for 24 hrs by Western blot analysis
[10] = biological target: Cystic fibrosis transmembrane conductance regulator (Homo sapiens) (UniProt P13569); test: Corrector activity at CFTR (unknown origin) transfected in HEK293 cells harboring CFTR fragment containing MSD2 assessed as increase in expression of CFTR level at 10 nM incubated for 24 hrs by Western blot analysis
[11] = biological target: Cystic fibrosis transmembrane conductance regulator (Homo sapiens) (UniProt P13569); test: Corrector activity at wild-type CFTR (unknown origin) expressed in human CFBE41o- cells assessed as restoration of CFTR level at 25 uM incubated for 30 mins by pull down assay
[12] = test system: Cystic fibrosis transmembrane conductance regulator (Homo sapiens), P13569 [F508del]; test: Corrector activity at CFTR F508del mutant (unknown origin) expressed in human CFBE41o- cells assessed as restoration of CFTR level at 25 uM incubated for 30 mins by pull down assay
[13] = biological target: Cystic fibrosis transmembrane conductance regulator (Homo sapiens) (UniProt P13569); test: Corrector activity at CFTR (unknown origin) transfected in HEK293 cells harboring CFTR fragment containing MSD1 assessed as increase in expression of CFTR level at 10 nM incubated for 24 hrs by Western blot analysis
[14] = biological target: Cystic fibrosis transmembrane conductance regulator (Homo sapiens) (UniProt P13569); test: Corrector activity at CFTR (unknown origin) transfected in HEK293 cells harboring CFTR fragment containing MSD1-NBD1 assessed as increase in expression of CFTR level at 10 nM incubated for 24 hrs by Western blot analysis
[15] = biological target: Cystic fibrosis transmembrane conductance regulator (Homo sapiens) (UniProt P13569); test: Corrector activity at CFTR (unknown origin) transfected in HEK293 cells harboring CFTR fragment containing MSD1-NBD1-R assessed as increase in expression of CFTR level at 10 nM incubated for 24 hrs by Western blot analysis
[16] = biological target: Cystic fibrosis transmembrane conductance regulator (Homo sapiens) (UniProt P13569); test: Corrector activity at CFTR (unknown origin) transfected in HEK293 cells harboring CFTR fragment containing del-R assessed as increase in expression of CFTR level at 10 nM incubated for 24 hrs by Western blot analysis
[17] = biological target: Cystic fibrosis transmembrane conductance regulator (Homo sapiens) (UniProt P13569); test: Corrector activity at CFTR (unknown origin) transfected in HEK293 cells harboring CFTR fragment containing MSD2-NBD2 assessed as increase in expression of CFTR level at 10 nM incubated for 24 hrs by Western blot analysis
[18] = biological target: Cystic fibrosis transmembrane conductance regulator (Homo sapiens) (UniProt P13569); test: Corrector activity at CFTR (unknown origin) transfected in HEK293 cells harboring CFTR fragment containing MSD1 assessed as increase in half life of CFTR MSD1 at 10 nM incubated for 24 hrs by Western blot analysis
[19] = biological target: Cystic fibrosis transmembrane conductance regulator (Homo sapiens) (UniProt P13569); test: Corrector activity at CFTR (unknown origin) transfected in HEK293 cells harboring CFTR fragment containing MSD2 assessed as effect on CFTR MSD2 stability at 10 nM incubated for 24 hrs by Western blot analysis
[20] = test system: Cystic fibrosis transmembrane conductance regulator (Homo sapiens), P13569 [F508del/R1070W]; test: Corrector activity at CFTR F508del/R1070W mutant (unknown origin) transfected in HEK293 cells assessed as increase in protein maturation at 10 nM incubated for 24 hrs by Western blot analysis
[21] = test system: Cystic fibrosis transmembrane conductance regulator (Homo sapiens), P13569 [F508del/R1070W]; test: Corrector activity at CFTR F508del/R1070W mutant (unknown origin) transfected in HEK293 cells assessed as increase in […] at 10 nM incubated for 24 hrs by Western blot analysis
[22] = test system: Cystic fibrosis transmembrane conductance regulator (Homo sapiens), P13569 [R170G]; test: Corrector activity at CFTR R170G mutant (unknown origin) transfected in HEK293 cells assessed as increase in protein maturation at 10 nM incubated for 24 hrs by Western blot analysis
[23] = test system: Cystic fibrosis transmembrane conductance regulator (Homo sapiens), P13569 [R170G]; test: Corrector activity at CFTR R170G mutant (unknown origin) transfected in HEK293 cells assessed as increase in […] at 10 nM incubated for 24 hrs by Western blot analysis
[24] = test system: Cystic fibrosis transmembrane conductance regulator (Homo sapiens), P13569 [F508del/N71I]; test: Corrector activity at CFTR F508del/N71I mutant (unknown origin) transfected in HEK293 cells assessed as increase in protein maturation at 10 nM incubated for 24 hrs by Western blot analysis
[25] = test system: Cystic fibrosis transmembrane conductance regulator (Homo sapiens), P13569 [F508del/F81A]; test: Corrector activity at CFTR F508del/F81A mutant (unknown origin) transfected in HEK293 cells assessed as increase in protein maturation at 10 nM incubated for 24 hrs by Western blot analysis
[26] = test system: Cystic fibrosis transmembrane conductance regulator (Homo sapiens), P13569 [F508del/W361A]; test: Corrector activity at CFTR F508del/W361A mutant (unknown origin) transfected in HEK293 cells assessed as increase in protein maturation at 10 nM incubated for 24 hrs by Western blot analysis
HEK293 = test: Corrector activity at CFTR F508del/A198Y mutant (unknown origin) transfected in HEK293 cells assessed as increase in protein maturation at 10 nM incubated for 24 hrs by Western blot analysis; conditions: Homo sapiens
[27] = test system: Cystic fibrosis transmembrane conductance regulator (Homo sapiens), P13569 [F508del/R74A]; test: Corrector activity at CFTR F508del/R74A mutant (unknown origin) transfected in HEK293 cells assessed as increase in protein maturation at 10 nM incubated for 24 hrs by Western blot analysis
[28] = test system: Cystic fibrosis transmembrane conductance regulator (Homo sapiens), P13569 [F508del/S364F]; test: Corrector activity at CFTR F508del/S364F mutant (unknown origin) transfected in HEK293 cells assessed as increase in protein maturation at 10 nM incubated for 24 hrs by Western blot analysis
[29] = test system: Cystic fibrosis transmembrane conductance regulator (Homo sapiens), P13569 [F508del/K68I]; test: Corrector activity at CFTR F508del/K68I mutant (unknown origin) transfected in HEK293 cells assessed as increase in protein maturation at 10 nM incubated for 24 hrs by Western blot analysis

- Activity [1]: inactive
Structure (SMILES): C#Cc1ccc(O[C@H]2CCCc3c(C(F)(F)F)nn(-c4cccc(C(=O)N(C)c5ccc(C6(C(F)(F)F)N=N6)cc5)c4)c32)cc1

- Activity [2]: 2.8
- Activity [3]: inactive
- Activity [4]: inactive
- Activity [5]: inactive
- Activity [6]: Active
- Activity [7]: Active
Structure (SMILES): C[C@H]1NC(=O)N[C@H]1CCCCCC(=O)NCCOCCOCCOCCn1cc(CCC2(CCNC(=O)c3ccc(O[C@H]4CCCc5c(C(F)(F)F)nn(-c6cccc(C(=O)N(C)c7ccc8c(c7)OC(F)(F)O8)c6)c54)cc3)N=N2)nn1

- Activity [8]: Active
- Activity [9]: Active
Structure (SMILES): CC(C)(CO)c1cc2cc(NC(=O)C3(c4ccc5c(c4)OC(F)(F)O5)CC3)c(F)cc2n1C[C@@H](O)CO

- Activity [3]: inactive
- Activity [4]: inactive
- Activity [5]: inactive
- Activity [6]: Active
- Activity [7]: Active
Structure (SMILES): C[C@H]1NC(=O)N[C@H]1CCCCCC(=O)NCCOCCOCCOCCn1cc(-c2ccc(O[C@H]3CCCc4c(C(F)(F)F)nn(-c5cccc(C(=O)N(C)c6ccc(C7(C(F)(F)F)N=N7)cc6)c5)c43)cc2)nn1

- Activity [10]: inactive
- Activity [11]: inactive
- Activity [12]: inactive
- Activity [13]: Active
- Activity [14]: Active
- Activity [15]: Active
- Activity [16]: Active
- Activity [17]: inactive
- Activity [18]: Active
- Activity [19]: inactive
- Activity [20]: Active
- Activity [21]: Active
- Activity [22]: Active
- Activity [23]: Active
- Activity [24]: Active
- Activity [29]: Active
Structure (SMILES): CN(C(=O)c1cccc(-n2nc(C(F)(F)F)c3c2[C@@H](Oc2ccc(C(=O)O)cc2)CCC3)c1)c1ccc2c(c1)OC(F)(F)O2
- Activity [25]: Not active; Protein Maturation Markedly Reduced Or Abolished
- Activity [26]: Not active; Protein Maturation Markedly Reduced Or Abolished
- Activity (HEK293): Not active; Protein Maturation Markedly Reduced Or Abolished
- Activity [27]: Not active; Slightly Reduced Protein Maturation
- Activity [28]: Not active; Slightly Reduced Protein Maturation
